Drawing on US20150218172A1, “Pyrrolo[2,3-D]Pyrimidine Tropomyosin-Related Kinase Inhibitors” (PFIZER LIMITED, priority 2012, published 2015), this text covers IC50 for two molecules.

The assay concerns the target T1, TrkA (Homo sapiens, UniProt P04629).
T1 construct: aa 441-796; His; purchased Invitrogen PV3144
The experiment in a line: Isolated TRK enzyme assay (HTRF KinEASE-TK kit), PV3144 TrkA enzyme assay. It is filed as biochemical. As to conditions: PV3144 TrkA enzyme assay, recombinant His-tagged cytoplasmic domain aa 441-796, 4 nM enzyme, 40 uM ATP; arithmetic mean where more than one reading; read-out: Trka enzyme (IC50). The essentials: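 HTRF KinEASE tyrosine-phosphorylation readout (665/620 nm ratio) on a 1 uM biotinylated substrate after reaction with preactivated His-tagged TrkA cytoplasmic domain plus ATP and MgCl2/DTT buffer. Compound preincubated 20 min with enzyme; IC50 from log-concentration sigmoid curve, averaged where repeated.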
Background: Time-resolved FRET reads energy transfer from a long-lived donor to a nearby acceptor.

Molecules are shown by their SMILES. pIC50: −log10 of the molar value.

T1 sequence (P04629 441-796): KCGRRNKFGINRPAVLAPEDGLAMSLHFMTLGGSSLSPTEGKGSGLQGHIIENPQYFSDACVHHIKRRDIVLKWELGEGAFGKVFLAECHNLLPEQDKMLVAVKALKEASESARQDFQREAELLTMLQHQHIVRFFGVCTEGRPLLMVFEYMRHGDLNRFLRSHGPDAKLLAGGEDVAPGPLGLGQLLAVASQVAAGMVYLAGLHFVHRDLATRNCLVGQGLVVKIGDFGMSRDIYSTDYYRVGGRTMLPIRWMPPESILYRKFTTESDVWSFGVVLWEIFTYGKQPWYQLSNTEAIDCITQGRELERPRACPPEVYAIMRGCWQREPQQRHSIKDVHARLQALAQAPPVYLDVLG

As to `N#Cc1ccc(CC(=O)Nc2cc(C(=O)c3cn(CCO)c4ncncc34)ccn2)cc1` [Example 143, 2-(4-cyanophenyl)-N-(4-{[7-(2-hydroxyethyl)-7H-pyrrolo[2,3-d]pyrimidin-5-yl]carbonyl}pyridin-2-yl)acetamide], the negative-log IC50 (pIC50) (in general, the negative decadic logarithm of the IC50, by convention in mol/L) is 6.57. Next, `CC(C)(C)n1cc(C(=O)c2cc(NC(=O)Cn3cc(C4CC4)nn3)ccn2)c2cncnc21` [Example 36, N-[2-(7-tert-Butyl-7H-pyrrolo[2,3-d]pyrimidine-5-carbonyl)-pyridin-4-yl]-2-(4-cyclopropyl-[1,2,3]triazol-1-yl)-acetamide]: 7.28.
